# Patent US20050164370A1 (priority 2003, published 2005)
# How the values were obtained:
# [1] = target: T1, cytokinin receptor AHK2 (Arabidopsis thaliana, UniProt Q9C5U2); settings: TM182-AHK2, DOLU+Glu agar, 30° C. for 30 hours
# T1 sequence (Q9C5U2 1-1176): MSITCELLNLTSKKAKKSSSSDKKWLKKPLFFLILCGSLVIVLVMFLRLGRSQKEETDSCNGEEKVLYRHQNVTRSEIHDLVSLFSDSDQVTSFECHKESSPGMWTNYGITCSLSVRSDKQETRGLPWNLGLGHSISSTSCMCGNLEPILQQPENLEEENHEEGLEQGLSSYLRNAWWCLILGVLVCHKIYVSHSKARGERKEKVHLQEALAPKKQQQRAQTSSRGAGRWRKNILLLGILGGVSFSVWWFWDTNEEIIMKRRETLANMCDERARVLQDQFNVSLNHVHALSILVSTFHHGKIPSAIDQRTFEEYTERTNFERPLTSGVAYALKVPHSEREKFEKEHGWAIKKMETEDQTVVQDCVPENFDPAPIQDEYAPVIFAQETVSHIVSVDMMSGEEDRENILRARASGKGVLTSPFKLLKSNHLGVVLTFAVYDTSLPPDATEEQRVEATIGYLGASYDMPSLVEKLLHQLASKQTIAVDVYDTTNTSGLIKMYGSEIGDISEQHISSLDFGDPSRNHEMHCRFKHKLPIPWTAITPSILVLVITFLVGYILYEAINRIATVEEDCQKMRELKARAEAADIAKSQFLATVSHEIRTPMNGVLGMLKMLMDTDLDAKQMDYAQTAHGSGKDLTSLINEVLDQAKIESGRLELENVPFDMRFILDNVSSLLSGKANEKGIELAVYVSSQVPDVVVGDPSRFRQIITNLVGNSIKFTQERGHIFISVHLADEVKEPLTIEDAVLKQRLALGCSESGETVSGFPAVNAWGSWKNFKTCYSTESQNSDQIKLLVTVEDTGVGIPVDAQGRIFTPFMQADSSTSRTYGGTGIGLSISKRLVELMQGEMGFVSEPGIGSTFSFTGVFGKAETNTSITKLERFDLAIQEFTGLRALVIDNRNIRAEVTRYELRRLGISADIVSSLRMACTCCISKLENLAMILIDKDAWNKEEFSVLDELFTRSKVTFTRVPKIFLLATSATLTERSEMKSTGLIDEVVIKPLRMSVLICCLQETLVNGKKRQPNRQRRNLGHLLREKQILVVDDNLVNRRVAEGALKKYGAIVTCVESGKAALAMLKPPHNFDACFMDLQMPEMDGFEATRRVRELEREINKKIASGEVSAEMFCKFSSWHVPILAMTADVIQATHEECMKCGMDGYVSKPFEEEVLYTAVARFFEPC
# Experimental: (§1) A culture solution 10 μl (about 800 clones of yeast) of the transformed cells TM182-CRE1, TM182-AHK2, TM182-AHK2Δ and TM182-AHK3 produced by the example 12 was spotted on DOLU+Glu agar media containing 10 μM of trans-zeatin and cultured at 30° C. for 30 hours. After incubation, the growth state of the transformed cells was observed and photographed by a digital camera.
# (§2) Culture solutions of the transformed cells TM182-CRE1, TM182-AHK2Δ and TM182-AHK2 produced by the reference example 1 were spotted on DOLU+Glu agar media containing cytokinin in a variety of concentrations (1 nM, 10 nM, 100 nM, 1 μM, 10 μM, 100 μM) and cultured at 30° C. for 30 hours. After incubation, the growth state of the transformed cells was observed and photographed by a digital camera.
# [2] = target: T2, cytokinin receptor AHK2Δ (Arabidopsis thaliana, UniProt Q9C5U2); settings: TM182-AHK2Δ, DOLU+Glu agar, 30° C. for 30 hours
# T2 sequence (Q9C5U2 196-1176): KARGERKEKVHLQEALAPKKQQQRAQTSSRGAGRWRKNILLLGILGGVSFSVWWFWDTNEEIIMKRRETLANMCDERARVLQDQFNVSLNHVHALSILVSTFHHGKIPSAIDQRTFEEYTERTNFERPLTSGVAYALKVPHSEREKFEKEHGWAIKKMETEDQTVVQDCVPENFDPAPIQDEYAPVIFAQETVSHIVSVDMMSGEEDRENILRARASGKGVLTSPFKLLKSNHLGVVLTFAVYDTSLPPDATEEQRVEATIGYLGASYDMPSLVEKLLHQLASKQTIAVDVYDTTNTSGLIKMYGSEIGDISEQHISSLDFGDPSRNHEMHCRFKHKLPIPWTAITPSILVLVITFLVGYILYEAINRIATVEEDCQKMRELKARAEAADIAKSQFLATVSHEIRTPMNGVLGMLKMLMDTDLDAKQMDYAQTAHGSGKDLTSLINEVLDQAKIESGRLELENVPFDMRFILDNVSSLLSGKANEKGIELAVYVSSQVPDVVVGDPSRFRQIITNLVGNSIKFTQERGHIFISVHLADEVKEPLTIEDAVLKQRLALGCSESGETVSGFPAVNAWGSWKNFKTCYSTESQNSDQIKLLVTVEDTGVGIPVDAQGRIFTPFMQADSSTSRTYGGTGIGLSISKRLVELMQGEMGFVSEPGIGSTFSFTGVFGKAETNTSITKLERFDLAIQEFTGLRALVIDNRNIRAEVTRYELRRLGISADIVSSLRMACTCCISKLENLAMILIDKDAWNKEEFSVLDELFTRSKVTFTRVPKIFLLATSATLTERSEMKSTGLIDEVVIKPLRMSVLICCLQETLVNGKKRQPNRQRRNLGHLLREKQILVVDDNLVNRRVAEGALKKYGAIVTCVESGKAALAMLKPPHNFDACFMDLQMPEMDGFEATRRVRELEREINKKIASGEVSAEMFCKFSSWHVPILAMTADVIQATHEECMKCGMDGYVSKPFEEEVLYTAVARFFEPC
# Experimental: as §1, §2
# [3] = target: cytokinin receptor CRE1 (Arabidopsis thaliana, UniProt Q9C5U0, S567G/T1018A); settings: TM182-CRE1, DOLU+Glu agar, 30° C. for 30 hours
# cytokinin receptor CRE1, sequence (Q9C5U0 24-1080 S567G/T1018A): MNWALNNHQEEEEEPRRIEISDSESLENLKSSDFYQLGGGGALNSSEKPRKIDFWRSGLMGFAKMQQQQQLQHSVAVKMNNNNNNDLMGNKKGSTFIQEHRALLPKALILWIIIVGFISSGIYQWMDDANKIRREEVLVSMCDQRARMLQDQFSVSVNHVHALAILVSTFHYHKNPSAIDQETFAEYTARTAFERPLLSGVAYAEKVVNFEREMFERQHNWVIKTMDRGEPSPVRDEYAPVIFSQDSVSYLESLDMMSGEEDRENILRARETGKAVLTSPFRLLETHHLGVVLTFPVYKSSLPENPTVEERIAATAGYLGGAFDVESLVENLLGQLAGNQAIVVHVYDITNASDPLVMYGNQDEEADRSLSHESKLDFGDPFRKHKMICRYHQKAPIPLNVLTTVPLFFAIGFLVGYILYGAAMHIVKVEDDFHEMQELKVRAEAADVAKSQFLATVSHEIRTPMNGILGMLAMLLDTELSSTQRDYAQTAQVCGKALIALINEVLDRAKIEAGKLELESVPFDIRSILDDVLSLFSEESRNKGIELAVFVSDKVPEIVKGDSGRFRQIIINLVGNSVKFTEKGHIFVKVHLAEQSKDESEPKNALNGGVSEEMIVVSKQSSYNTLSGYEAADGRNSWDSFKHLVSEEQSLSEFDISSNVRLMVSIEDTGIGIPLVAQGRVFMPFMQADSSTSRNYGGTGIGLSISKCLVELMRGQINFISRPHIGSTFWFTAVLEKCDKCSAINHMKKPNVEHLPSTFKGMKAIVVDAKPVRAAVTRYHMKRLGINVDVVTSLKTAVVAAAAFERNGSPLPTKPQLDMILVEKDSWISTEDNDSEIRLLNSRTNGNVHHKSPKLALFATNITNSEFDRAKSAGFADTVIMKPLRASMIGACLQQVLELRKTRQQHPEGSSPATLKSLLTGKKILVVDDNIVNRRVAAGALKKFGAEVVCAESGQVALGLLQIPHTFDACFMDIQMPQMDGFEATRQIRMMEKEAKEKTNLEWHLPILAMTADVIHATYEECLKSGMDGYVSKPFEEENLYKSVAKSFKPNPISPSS
# Experimental: as §1, §2
smiles,measurement,setting,value
C/C(=C\CNc1ncnc2nc[nH]c12)CO [trans-zeatin],lowest observed supply concentration in which the transformed cells could be grown,[1]; 1 nM to 100 μM tested,1 µM
same,growth state of the transformed cells as compared with media containing no trans-zeatin,[1]; 10 μM,high growth
same,lowest observed supply concentration in which the transformed cells could be grown,[2]; 1 nM to 100 μM tested,100 nM
same,growth state of the transformed cells as compared with media containing no trans-zeatin,[2]; 10 μM,high growth
same,lowest observed supply concentration in which the transformed cells could be grown,[3]; 1 nM to 100 μM tested,10 µM
same,growth state of the transformed cells as compared with media containing no trans-zeatin,[3]; 10 μM,high growth
